Reference: patent publication US8784818B2, “Anti-VEGFR-3 antibody compositions” (ImClone LLC, priority 2010, dated 2014)

Legend:
NCI-H292 tumor = test: NCI-H292 lung cancer xenograft model; assay type: in vivo, mice; settings: versus control group; Antibody 2 40 mg/kg 3 times per week i.p.; Docetaxel 12 mg/kg q7d; through Day 26
Protocol: In order to test for activity of anti-VEGFR-3 antibodies in lung cancer, the NCI-H292 xenograft model is used. Nu/nu mice (female, 7-8 weeks of age) are injected subcutaneously with 2×10^6 NCI-H292 cells/mouse. When tumors reach approximately 300 mm^3, mice are randomized by tumor size into the following treatment groups (n=15): 1) USP saline at 10 μl/g, 3 times per week, i.p., starting on day 2. 2) Antibody 2 at 40 mg/kg, 3 times per week, i.p., starting day 2. 3) Docetaxel at 12 mg/kg, q7d, starting day 1. 4) Docetaxel at 12 mg/kg, q7d, starting day 1 plus Antibody 2 at 40 mg/kg, 3 times per week, starting day 2.
Tumor volumes are measured approximately twice a week and body weights are recorded at least twice a week for the duration of the study. At sacrifice, mice are euthanized by CO2 asphyxiation. The T/C % is calculated for each treatment group as the ratio of the relative tumor volume in the experimental groups versus the control group. Tumor growth and body weights are compared to the control group by repeated measures ANOVA through Day 26.

CAL27 tumors = test: CAL27 squamous cell carcinoma xenograft model; assay type: in vivo, mice; settings: versus USP saline; Antibody 2 40 mg/kg 3 days per week; cisplatin 7 mg/kg q7d; through Day 61
Protocol: In order to test for activity of anti-VEGFR-3 antibodies in head and neck cancer, the CAL27 xenograft model is used. CAL27 cell suspension, at 1×10^7 cells/mouse, is injected s.c. into the left flank of 60 female athymic mice. When tumors reach ˜180 mm^3, eight days after cell implantation, the mice are randomized and divided into four treatment groups (n=12): 1.) USP saline control, 0.5 ml i.p., 3 days per week 2.) Antibody 2 at 40 mg/kg, 3 days per week 3.) cisplatin at 7 mg/kg, q7d 4.) Antibody 2 at 40 mg/kg, 3 days per week+cisplatin at 7 mg/kg, q7d.
Tumor measurements are recorded twice weekly; RM ANOVA through Day 61 is used to compare tumor growth among the treatment groups. Chi Squared tests are used to test for statistical significance in the number of tumor regressions among the treatment groups.

| Structure (SMILES) | T/C % (NCI-H292 tumor) [%] | T/C % (CAL27 tumors) [%] |
| --- | --- | --- |
| CC(=O)O[C@@]12CO[C@@H]1C[C@H](O)[C@@]1(C)C(=O)[C@H](O)C3=C(C)[C@@H](OC(=O)[C@H](O)[C@@H](NC(=O)OC(C)(C)C)c4ccccc4)C[C@@](O)([C@@H](OC(=O)c4ccccc4)[C@H]21)C3(C)C [Docetaxel] | 49 |  |
| N.N.[Cl][Pt][Cl] [cisplatin] |  | 39 |
